Data as given in ChEMBL document CHEMBL1147970, “Enzymatic synthesis of arbutin undecylenic acid ester and its inhibitory effect on melanin synthesis” (2007).
Active and inactive are the calls of the source. No cut-off for these calls is given here.

Tested on: B16
Assay: Antimelanogenic activity in mouse B16 cells at 0.1 mM after 6 days relative to control
Type: functional

Structure (SMILES) | Activity
C=CCCCCCCCCC(=O)OC[C@H]1O[C@@H](Oc2ccc(O)cc2)[C@H](O)[C@@H](O)[C@@H]1O | 30%
OC[C@H]1O[C@@H](Oc2ccc(O)cc2)[C@H](O)[C@@H](O)[C@@H]1O | inactive
